Measured values as given in a melting point compilation (Tetko et al.; mined from patent text by program, amines drawn as free bases though some values may be those of a salt).

Question: For `COc1cc2scc(C(=O)Nc3cccnc3)c2cc1Br`, which melting point is on record?
Answer: 160 to 161 °C

Question: Which melting point does the source give for `NC(=O)N1CCCC(CC(=O)c2ccc(F)cc2)C1` (configuration not stated) here?
Answer: 136 to 138 °C

Question: With `CCCCCCC(C)(C)c1cc(OCc2ccccc2)c(C2=C(CC(=O)O)CCC(C)C2)c(OCc2ccccc2)c1` (configuration not stated) as the molecule, how does the melting point read?
Answer: 69 to 70 °C

Question: With `CCOc1nc(NCc2ccco2)nc(Nc2ccc3[nH]cnc3c2)n1` as the molecule, how does the melting point read?
Answer: 110 to 112 °C

Question: Which melting point does the source give for `CC(=O)NCCOC(=O)C(Oc1ccc(F)c(C(F)(F)F)c1)c1ccc(Cl)cc1` (configuration not stated) here?
Answer: 108 °C

Question: For `CC(CNS(C)(=O)=O)Nc1nc(Cl)ncc1Cl` (configuration not stated), which melting point is on record?
Answer: 160 °C

Question: With `O=c1cc(Nc2cccc(-c3ccncc3)c2)c1=O` as the molecule, how does the melting point read?
Answer: 252 to 256 °C

Question: Which melting point does the source give for `c1ccc(C2(Oc3cnccn3)CCNCC2)cc1` here?
Answer: 107 to 108 °C

Question: For `CCOC(=O)c1c2ccc(CC(=O)NOC(=O)NC)ccc-2c(C(=O)OCC)c1N`, which melting point is on record?
Answer: 222 to 224 °C

Question: Which melting point does the source give for `CCOCc1nc2c(N)nc3ccc(OCc4ccccc4)cc3c2n1CC(C)(C)NC(=O)C1CCCCC1` here?
Answer: 90 °C

Question: For `C=C(C)COc1cc(C(=O)OC)ccc1OC`, which melting point is on record?
Answer: 62 to 63 °C

Question: For `CCCCNc1cc(C(=O)O)cc(S(=O)(=O)NCCCC)c1Oc1ccccc1`, which melting point is on record?
Answer: 184 to 185 °C

Question: For `CN1CNC(=S)N(c2ccc(Cl)cc2)C1`, which melting point is on record?
Answer: 178 to 179 °C

Question: For `CC(C)c1cc(C#N)cc(C(=O)Nc2ccn(C)n2)n1`, which melting point is on record?
Answer: 174 °C

Question: Which melting point does the source give for `CN1C(=O)N(C[C@H](C(=O)NOCc2ccccc2)[C@@H](CC2CCCC2)C(=O)N2CCCCC2)C(=O)C1(C)C` here?
Answer: 138 to 140 °C

Question: With `CC12CCC(C(=O)O)=CC1=CCC1C2CCC2(C)C(C(=O)Cc3ccccc3)CCC12` (configuration not stated) as the molecule, how does the melting point read?
Answer: 258 °C

Question: Which melting point does the source give for `CC1C(=O)Nc2c(C(=O)c3ccc(Cl)cc3)cccc21` (configuration not stated) here?
Answer: 130 to 140 °C

Question: With `Fc1cccc(Cl)c1[C@@H]1C[C@H](c2ccc(Cl)cc2)Nc2ncnn21` (relative stereo) as the molecule, how does the melting point read?
Answer: 227 to 228 °C

Question: With `CCOCCNc1nc(C)c(CCO)c(=O)[nH]1` as the molecule, how does the melting point read?
Answer: 172 °C

Question: For `CC1(C)C=C(c2ccccn2)c2cc(F)c(F)cc2OC1`, which melting point is on record?
Answer: 86 °C

Question: Which melting point does the source give for `CC1CCCCN1CCC(CCN(C(C)C)C(C)C)(C(N)=O)c1ccccc1F` (configuration not stated) here?
Answer: 90 to 91 °C

Question: With `CCCCCCCCCCCCCCCCCCOc1ccc(C(=O)Nc2ccc(O)cc2)cc1` as the molecule, how does the melting point read?
Answer: 193 °C

Question: With `O=C1Nc2ccccc2C(c2ccc(Cl)c(Cl)c2)CC1Br` (configuration not stated) as the molecule, how does the melting point read?
Answer: 183 to 188 °C

Question: For `O=C(C=Cc1cncc(O)c1)NCCCN1CCN(C(c2ccccc2)c2ccccc2)CC1`, which melting point is on record?
Answer: 189 to 191 °C

Question: Which melting point does the source give for `O=C(O)CCCC(=O)c1ccc2c(c1)CCO2` here?
Answer: 131 to 133 °C

Question: With `CCOc1c(OC)cc(N)cc1OC` as the molecule, how does the melting point read?
Answer: 88 to 89 °C

Question: For `COc1cc2c(cc1OC)CN(CCCc1ccc(NC(=O)c3cc(OC)c4ccccc4n3)cc1)CC2`, which melting point is on record?
Answer: 123 to 125 °C

Question: For `CCCCCCCC(=O)CCCCCC(=O)N[C@@H](C)C(=O)O`, which melting point is on record?
Answer: 84 to 86 °C

Question: With `CCN1CCc2ccc(Nc3ncc(C(F)(F)F)c(Nc4ccccc4C(=O)NC)n3)cc2CC1` as the molecule, how does the melting point read?
Answer: 226 °C

Question: With `COC(=O)c1cncn1C(c1ccccc1)c1ccccn1` (configuration not stated) as the molecule, how does the melting point read?
Answer: 96.3 °C

Question: For `C=CCOC(=O)c1c(Oc2nc(OC)cc(OC)n2)ccc2[nH]c(C)c(N)c12`, which melting point is on record?
Answer: 132 to 135 °C

Question: Which melting point does the source give for `Nc1ncnc2c1ncn2C1OC(C(O)C(=O)NC2CCCC2)C(O)C1O` (configuration not stated) here?
Answer: 155 to 157 °C

Question: For `Cc1cc(C(O)(COc2ccc(Cl)cc2)C(F)(F)F)ccc1NC(=O)c1cccc(I)c1C(=O)NC(C)C` (configuration not stated), which melting point is on record?
Answer: 90 to 95 °C

Question: Which melting point does the source give for `COc1ccc(COC(=O)CNC=S)cc1` here?
Answer: 107 to 108 °C

Question: Which melting point does the source give for `Cc1ccc(-c2nc(-c3ccc(C)cc3C)nc(-c3ccc(O)cc3O)n2)c(C)c1` here?
Answer: 199 to 201 °C

Question: Which melting point does the source give for `CCOC(=O)c1c(O)c(O)c(C(=O)OCC)n1Cc1ccccc1` here?
Answer: 144 to 145 °C

Question: With `O=c1c2ccccc2oc2cc(O)ccc12` as the molecule, how does the melting point read?
Answer: 242 °C

Question: Which melting point does the source give for `O=C(O)C(Cc1ccccc1)Oc1ccc(-c2ccc(-c3c(Cc4ccccc4)oc4ccccc34)cc2)cc1Br` (configuration not stated) here?
Answer: 80 to 82 °C

Question: With `Nc1nc2cc(N)c(OC(F)(F)F)cc2s1` as the molecule, how does the melting point read?
Answer: 175 °C

Question: With `CC#Cc1cnc(OC)nc1` as the molecule, how does the melting point read?
Answer: 88 to 89.5 °C

Question: With `O=C1OC(=O)c2cc(Oc3ccc(C(F)(F)F)cc3Cl)ccc21` as the molecule, how does the melting point read?
Answer: 88 to 91 °C

Question: Which melting point does the source give for `CC(=O)C1CCC2C3CCC4CC(=O)CCC4(C)C3C(O)CC12C` (configuration not stated) here?
Answer: 227 to 233 °C

Question: For `O=C(NO)[C@H](CNS(=O)(=O)c1ccc(OCc2ccccc2)cc1)N1CCCCC1`, which melting point is on record?
Answer: 126 °C

Question: For `CC(C)(C)OC(=O)NC(C(=O)O)c1ccc(O)cc1` (configuration not stated), which melting point is on record?
Answer: 112 to 114 °C

Question: Which melting point does the source give for `Cc1cn(C(C)C(=O)N(C)C)nc1-c1ccc(Cl)cc1` (configuration not stated) here?
Answer: 99.5 to 101 °C

Question: For `Cc1cc(O)c(S(=O)Cc2ccc(Cl)c(Cl)c2)c(=O)o1` (configuration not stated), which melting point is on record?
Answer: 144 to 146 °C

Question: For `NC(=O)/C=C/C1=CC=CC(F)(C(F)(F)F)C1` (configuration not stated), which melting point is on record?
Answer: 121 to 122 °C

Question: Which melting point does the source give for `OCCn1cc2c(n1)CN=C(c1ccccc1)c1cc(Cl)ccc1-2` here?
Answer: 173 to 175 °C

Question: With `COC(=O)[C@@H]1[C@H](NCc2cc(OC(F)(F)F)ccc2OC)[C@H](c2ccccc2)N[C@@H]1C` (relative stereo) as the molecule, how does the melting point read?
Answer: 81 to 82 °C

Question: With `C[C@H](Nc1nc(NC=O)nc([C@@H](C)F)n1)C1CCCCC1` as the molecule, how does the melting point read?
Answer: 127 °C

Question: With `COc1ccc(N(C)c2nc(N)nc3[nH]c4cccc(Cl)c4c23)cc1` as the molecule, how does the melting point read?
Answer: 163 to 164 °C

Question: With `O=[N+]([O-])c1ccc2c(c1)CCN(C[C@H](O)C(F)(F)F)CC2` as the molecule, how does the melting point read?
Answer: 82 to 85 °C

Question: With `N#Cc1cc(-c2ccc(C(F)(F)F)cc2)ccc1-n1cc(-c2cc(F)cc(F)c2)nn1` as the molecule, how does the melting point read?
Answer: 229 to 230 °C

Question: With `Cc1nsnc1-n1cc(C(=O)O)c(=O)c2cc(F)c(Cl)nc21` as the molecule, how does the melting point read?
Answer: 247 to 249 °C

Question: For `N#Cc1cn(-c2c(Cl)cc(C(F)(F)F)cc2Cl)nc1[N+](=O)[O-]`, which melting point is on record?
Answer: 163 to 165 °C

Question: Which melting point does the source give for `CNC(=O)c1ccc(N2CCN(Cc3cc4c(c(OC)c3)OC(C)C(=O)N4)CC2)c(Cl)c1` (configuration not stated) here?
Answer: 200 to 203 °C

Question: Which melting point does the source give for `CC(C)=C1C(=O)Nc2cc3[nH]c(-c4ccncc4)nc3cc21` here?
Answer: > 300 °C

Question: With `CSc1c(OCC(=O)O)ccc2c1[nH]c1ccccc12` as the molecule, how does the melting point read?
Answer: 179 to 180 °C

Question: For `CN1Cc2c(S(=O)(=O)Cl)cc3[nH]c(=O)c(=O)[nH]c3c2C1`, which melting point is on record?
Answer: > 300 °C

Question: With `O=C(NC1CC1)c1cc(Nc2nc(N3CCCC3c3ccccn3)nc3ccoc23)[nH]n1` (configuration not stated) as the molecule, how does the melting point read?
Answer: 238 °C

Question: Which melting point does the source give for `NC(Cc1nc2cc(F)c(F)cc2nc1CP(=O)(O)O)C(=O)O` (configuration not stated) here?
Answer: 144 to 145 °C

Question: With `CC(C)n1nc(-c2sc(C(N)=S)nc2-c2ccccc2)ccc1=O` as the molecule, how does the melting point read?
Answer: > 250 °C

Question: For `CCNC(=O)c1c([Si](C)(C)C)ccc(C=O)c1Cl`, which melting point is on record?
Answer: 140 to 142 °C

Question: For `O=C1c2ccccc2C(=O)c2sc(-c3ncc(-c4ccccc4)o3)nc21`, which melting point is on record?
Answer: > 260 °C

Question: For `COC(=O)c1cc(Cl)sc1NC(C)=O`, which melting point is on record?
Answer: 110 °C

Question: For `CON=C(C(=O)OC)c1ccccc1CSc1nc2ccccc2s1`, which melting point is on record?
Answer: 113 to 114 °C

Question: Which melting point does the source give for `Cc1cc(-c2cnn3c(C(F)(F)F)cc(-c4cccc(C(F)(F)F)c4)nc23)cc(C)n1` here?
Answer: 236 °C

Question: With `CCc1nc2c(N)nc3ccccc3c2n1CC#Cc1cccc([N+](=O)[O-])c1` as the molecule, how does the melting point read?
Answer: 224 to 243 °C

Question: With `CCN1CCN(C/C=C/c2ccc3c(Nc4ccc(Sc5nccn5C)c(Cl)c4)c(C#N)cnc3c2)CC1` as the molecule, how does the melting point read?
Answer: 232 to 236 °C

Question: Which melting point does the source give for `CCNC(=O)C(C)(C)N=NC(C)(C)C(=O)NCC` here?
Answer: 98 °C

Question: For `CCOC(=O)C1=C(N)NC(N)=C(C(=O)OC(C)C)C1c1ccccc1` (configuration not stated), which melting point is on record?
Answer: 170 °C

Question: For `COc1ccc(-c2cc3c(O)ncnc3[nH]2)cc1`, which melting point is on record?
Answer: > 300 °C
